The target in data set [1] is T1, hFFAR1 (Homo sapiens, UniProt O14842).
T1 construct: expressed in transfected cells
In words: Ca2+ mobilization assay (FLIPR) in CHO cells stably expressing hFFAR1. It is filed as cell-based. The note with it: for agonistic activity, Ca2+ influx: hFFAR1/CHO cells (clone #104). The procedure:
Cells were selected by culturing in nucleotide-free alpha-minimum essential medium (α-MEM; Invitrogen) supplemented with 10% dialyzed and heat-inactivated fetal bovine serum (FBS; Invitrogen), 100 IU/mL penicillin, and 100 µg/mL streptomycin (Invitrogen). […] The murine pancreatic β cell line MIN6 cells were kindly provided by Dr. Miyazaki. […] Cells were cultured in a humidified atmosphere containing 5% CO2/95% air at 37°C.
(§1) For stable CHO cell lines, cells were seeded in black-walled clear-bottomed 96-well cell culture plates (Costar) and incubated overnight in 5% CO2 at 37°C. Otherwise, HEK293T cells were transiently transfected with expression plasmids using Trans-IT (Mirus) or Lipofectamine 2000, followed by plating in poly-D-lysine-coated black clear 96-well plates (BD Falcon) and incubated for 2 days. These cells were then incubated at 37°C for 1 h in HEPES-buffered Hank’s balanced salt solution (pH 7.4) containing 2.5 mM probenecid, 1% FBS, and 4 µM fluo-3 AM (Dojindo). Following this, the cells were washed four times with the solution without fluo-3 AM. Intracellular Ca^2+ concentrations were measured before and after adding samples using FLIPR (Molecular Devices). Assays were performed in the absence of bovine serum albumin (BSA).
On the technique in general: Calcium assays in cells follow changes in intracellular calcium, usually with a dye or a luminescent sensor.

In data set [2] the test system is FFAR1 H137A and L186A mutants. In words: Ca2+ influx assay, FFAR1 point mutants in transfected HEK293T cells. It is filed as cell-based. The conditions noted are these: for change of EC50 in mutants versus wild-type: range over fasiglifam and GW9508 and both mutants. The procedure: (§2) FLAG-tagged FFAR1 was constructed using a two-step procedure. Initially, untagged FFAR1-pcDNA3.1 was amplified using the forward primer ([…]) and the reverse primer ([…]) to insert a FLAG epitope at the N terminus of the receptor. Following this, the polymerase chain reaction (PCR) product was purified and ligated into a pcDNA3.1 vector. Mutations were made using the QuikChange Site-Directed Mutagenesis Kit (Stratagene) and verified by sequencing.
as §1, with “(BSA). EC50, 95% confidence interval and Emax values for each curve were calculated by data analysis using 4-parameter logistic equation in Prism 5 software (GraphPad Software).” for “(BSA).”

In data set [3] the test system is FFAR1 R183A and R258A mutants. Described as above. The format is cell-based. The protocol:
as §2
as §1, with “(BSA). EC50, 95% confidence interval and Emax values for each curve were calculated by data analysis using 4-parameter logistic equation in Prism 5 software (GraphPad Software).” for “(BSA).”

Data set [4] relates to MIN6 cells. In words: Insulin secretion assay in MIN6 cells. It is filed as cell-based, mouse. The note with it: 16 mM glucose. The procedure: MIN6 cells were seeded at a density of 6 × 10^4 cells/well in 96-well plates (BD Falcon), and cells were cultured in the growth medium described above for 2 days before experiments. After discarding the medium, cells were preincubated for 2 h at 37°C with 200 µL of Krebs-Ringer bicarbonate–HEPES (KRBH) buffer (116 mmol/L NaCl, 4.7 mmol/L KCl, 1.17 mmol/L KH2PO4, 1.17 mmol/L MgSO4, 25 mmol/L NaHCO3, 2.52 mmol/L CaCl2, and 24 mmol/L HEPES) containing 0.2% BSA and 1 mmol/L glucose. After discarding the preincubation buffer, KRBH containing 0.2% BSA, 16 mmol/L glucose, and stimulators as shown was added and the plate was incubated for 2 h at 37°C. After incubation, supernatants from each well were collected and secreted insulin concentrations were measured using alphaLISA (PerkinElmer) according to the manufacturer’s instruction.

Data set [5] has as its system MIN6 cells. The conditions noted are these: mouse, 72 h, 1 mM.
Protocol: (§3) Caspase 3/7 activity in MIN6 cells was measured according to a previously described method (8). In brief, MIN6 cells were seeded at a density of 2 × 10^4 cells/well in a 96-well black clear plate (CORNING) and cultured overnight. After discarding the medium, 1% BSA, palmitic acid–BSA conjugate (0.25, 0.5, and 1 mM) or γ-LA–BSA conjugate (0.25, 0.5, and 1 mM) in combination with 0.1% DMSO or fasiglifam (0.1, 1, and 10 µM) were added to the plates and cultured for 72 h. After incubation, caspase 3/7 activity was measured using the Apo-one Homogeneous Caspase 3/7 assay (Promega) according to the manufacturers’ instructions. Fluorescent intensity was measured at excitation and emission wavelengths of 485 nm and 535 nm, respectively (Wallac 1420 ARVO SX Multilabel Counter; PerkinElmer).
Data set [6] deals with N-STZ-1.5 rats. In words: Oral glucose tolerance test in diabetic N-STZ-1.5 rats. The format is in vivo, rat. The protocol:
Blood samples were collected from the tail vein before drug administration (pre), before glucose load (time 0), and 10, 30, 60, and 120 min after the glucose load. Plasma glucose and FFA levels were measured using Autoanalyzer 7080 (Hitachi, Japan), and insulin levels were measured using the Rat Insulin ELISA Kit (Morinaga, Japan). All procedures were conducted according to the Experimental Animal Care and Use Committee of Takeda Pharmaceutical Company Limited.

For data set [7], the target named is T2, mFFAR1 (Mus musculus, UniProt Q76JU9).
T2 construct: expressed in transfected cells
T2 sequence (Q76JU9 whole entry): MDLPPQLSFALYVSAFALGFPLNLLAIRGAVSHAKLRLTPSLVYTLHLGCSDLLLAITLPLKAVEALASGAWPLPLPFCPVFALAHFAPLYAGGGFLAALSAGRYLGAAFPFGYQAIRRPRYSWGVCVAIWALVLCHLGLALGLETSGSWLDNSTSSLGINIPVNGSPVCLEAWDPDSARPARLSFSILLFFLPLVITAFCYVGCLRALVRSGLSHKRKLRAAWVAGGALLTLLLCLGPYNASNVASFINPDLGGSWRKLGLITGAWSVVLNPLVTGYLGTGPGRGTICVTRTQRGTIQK
In words: Ca2+ mobilization assay (FLIPR) in CHO cells stably expressing mFFAR1. The format is cell-based. The protocol:
To establish CHO cells (dhfr−) stably expressing hFFAR1 or mFFAR1, CHO/dhfr− (ATCC catalog # CRL-9096) cells were transfected with hFFAR1-pAKKO-111H or mFFAR1-pAKKO-111H plasmid using Lipofectamine 2000 (Invitrogen). Cells were selected by culturing in nucleotide-free alpha-minimum essential medium (α-MEM; Invitrogen) supplemented with 10% dialyzed and heat-inactivated fetal bovine serum (FBS; Invitrogen), 100 IU/mL penicillin, and 100 µg/mL streptomycin (Invitrogen). HEK293T (ATCC catalog # CRL-11268) cells were cultured in Dulbecco’s modified Eagle’s medium (DMEM, Invitrogen) supplemented with 10% heat-inactivated FBS, 100 IU/mL penicillin, and 100 µg/mL streptomycin. The murine pancreatic β cell line MIN6 cells were kindly provided by Dr. Miyazaki. MIN6 cells were grown in DMEM containing 10% heat-inactivated FBS, 100 IU/mL penicillin, 100 µg/mL streptomycin, and 55 µmol/L 2-mercaptoethanol (Invitrogen). Cells were cultured in a humidified atmosphere containing 5% CO2/95% air at 37°C.
For stable CHO cell lines, cells were seeded in black-walled clear-bottomed 96-well cell culture plates (Costar) and incubated overnight in 5% CO2 at 37°C. […] Intracellular Ca^2+ concentrations were measured before and after adding samples using FLIPR (Molecular Devices). […]

Data set [8] has as its target T1, hFFAR1. In words: Ca2+ influx in HEK293T cells transiently transfected with varying amounts of hFFAR1 plasmid. The format is cell-based. The conditions noted are these: 100 ng to 1 ng hFFAR1 plasmid, compared with γ-LA. The protocol: as §1, with “(BSA). EC50, 95% confidence interval and Emax values for each curve were calculated by data analysis using 4-parameter logistic equation in Prism 5 software (GraphPad Software).” for “(BSA).”
Supplementary file pone.0076280.s002.tif: Figure S2 Relative efficacy of fasiglifam is affected by FFAR1/GPR40 expression levels in transient HEK293T cells. Relative Ca^2+ influx activities of fasiglifam and γ-linolenic acid (γ-LA) were measured in HEK293T cells transiently transfected with 100 ng (A), 30 ng (B), 10 ng (C), 3 ng (D), and 1 ng (E) of hFFAR1 expression plasmids. Error bars indicate s.e.m. […]

Data set [9] relates to FFAR1 Y91A and N244A mutants. In words: Ca2+ influx assay, FFAR1 point mutants in transfected HEK293T cells. The format is cell-based. The procedure:
as §2
as §1, with “(BSA). EC50, 95% confidence interval and Emax values for each curve were calculated by data analysis using 4-parameter logistic equation in Prism 5 software (GraphPad Software).” for “(BSA).”

The subject of data set [10] is wild-type mouse islets. In words: Insulin secretion in wild-type mouse islets. The note with it: 16 mM glucose. The format is cell-based.
In data set [11] the test system is FFAR1-knockout mouse islets. In words: Insulin secretion in FFAR1-knockout mouse islets. It is filed as cell-based. The note with it: 16 mM glucose.
The subject of data set [12] is rat insulinoma cells. Details: method as in PMID 21752941. The note with it: prolonged exposure to fasiglifam alone; cited from earlier work.
Data set [13] relates to MIN6 cells. In words: Caspase 3/7 activity in MIN6 cells (lipotoxicity). The conditions noted are these: 72-h exposure, palmitic acid 0.25–1 mM.
Protocol: as §3

Each structure is given as a SMILES string. pEC50: −log10 of the molar value. Like-named read-outs stand apart in the source and are kept apart here.

T1 sequence (O14842 whole entry): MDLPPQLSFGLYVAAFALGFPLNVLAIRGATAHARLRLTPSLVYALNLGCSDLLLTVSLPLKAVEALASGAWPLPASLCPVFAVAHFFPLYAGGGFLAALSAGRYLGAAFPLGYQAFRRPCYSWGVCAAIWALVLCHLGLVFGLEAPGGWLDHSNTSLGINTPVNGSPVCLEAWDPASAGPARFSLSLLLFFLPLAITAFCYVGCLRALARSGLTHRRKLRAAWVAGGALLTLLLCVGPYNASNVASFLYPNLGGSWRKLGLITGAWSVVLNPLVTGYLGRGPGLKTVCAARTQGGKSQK

Regarding `CCCCC/C=C\C/C=C\C/C=C\CCCCC(=O)O` [γ-LA, γ-linolenic acid], the “agonistic activity, Ca2+ influx” value in data set [1] was “full agonistic activity”. Also, the pEC50 (in general, −log10 of the EC50, conventionally taken in molar units) in data set [1] (hFFAR1/CHO clone #2, without fasiglifam, read-out: EC50 of γ-LA response (Ca2+ influx)) is 5.27. For the same molecule, in data set [2], the “activity in mutants versus wild-type” value is “remained almost unchanged”. Moreover, the “Ca2+ influx response of mutants” value in [3] is recorded as “relatively less affected”. In addition, the “insulin secretion, compound alone” value in data set [4] (0.2% BSA) is recorded as “could not significantly potentiate insulin secretion”. Moreover, in [5], the “caspase 3/7 activity” value was “significant enhancements of caspase 3/7 activity”.

For the molecule `Cc1cnc(C(=O)O)c[n+]1[O-]` [acipimox], the “plasma FFA levels” value in [6] (acipimox 30 mg/kg oral, N-STZ-1.5 rats, OGTT) is “rapid decrease”. In data set [6] (acipimox alone 30 mg/kg, OGTT, N-STZ-1.5 rats), the glucose tolerance result is listed as “improved glucose tolerance”. Further, in [6] (diabetic rats, acipimox), the “plasma FFA level after reduction with acipimox” value is “approximately 0.2 mEq/L”.

Turning to `Cc1cc(OCCCS(C)(=O)=O)cc(C)c1-c1cccc(COc2ccc3c(c2)OC[C@H]3CC(=O)O)c1.Cc1cc(OCCCS(C)(=O)=O)cc(C)c1-c1cccc(COc2ccc3c(c2)OC[C@H]3CC(=O)O)c1.O` [fasiglifam, [(3S)-6-({2′,6′-dimethyl-4′-[3-(methylsulfonyl)propoxy]biphenyl-3-yl}methoxy)-2,3-dihydro-1-benzofuran-3-yl] acetic acid hemihydrate], the “agonistic activity, Ca2+ influx” value in [1] was “higher potency than FFAs”. Besides, the “effect of simultaneous γ-LA on fasiglifam Ca2+ activity” value in data set [1] (hFFAR1/CHO clone #2, increasing doses of γ-LA) was “remarkable potentiation”. Besides, in [7], the “Emax, Ca2+ mobilization” value is “lower Emax than γ-LA”. For the same molecule, the “maximal response as amount of transfection plasmid decreased” value in [8] was “dramatically decreased”. Besides, the “change of EC50 in mutants versus wild-type” value in data set [2] is on record as 7.7- to 130 fold. Further, the “Ca2+ influx response of mutants” value in [3] is on record as “almost unresponsive”. In addition, the “effect of mutations on potency” value in data set [9] is recorded as “more drastic”. In addition, the “increase in the maximal response of fasiglifam (insulin secretion) by γ-LA” value in data set [4] (γ-LA 100 µM) is on record as 1.5–2 fold. Moreover, the “effect of γ-LA on insulinotropic activity of fasiglifam” value in [10] is given as “dramatic improvement”. Further, the “insulinotropic effect in FFAR1-knockout islets” value in data set [11] was “completely abolished”. In addition, the “insulinotropic action in acipimox-treated rats” value in data set [6] (fasiglifam 10 mg/kg + acipimox 30 mg/kg, OGTT) is on record as “significantly suppressed”. The “plasma insulin (insulinotropic effect) versus vehicle” value in data set [6] (fasiglifam alone 10 mg/kg oral, at 0, 10, and 30 min of OGTT) was “significant insulinotropic effects”. Besides, in data set [12], the effect on apoptosis result is reported as “no effect on apoptosis”.

Take `CCCCCCCCCCCCCCCC(=O)O` [palmitic acid]: in data set [1], the “agonistic activity, Ca2+ influx” value is reported as “partial activities”. The “caspase 3/7 activity” value in data set [13] is “increased caspase 3/7 activity in a dose-dependent manner”.

Consider `CCC1=C(C)CN(C(=O)NCCc2ccc(S(=O)(=O)NC(=O)N[C@H]3CC[C@H](C)CC3)cc2)C1=O` [glimepiride], for which, in [11], the “insulinotropic effect in FFAR1-knockout islets” value was “not affected”.

As for `CCCCCCCCCCCCCC(=O)O` [myristic acid], the “agonistic activity, Ca2+ influx” value in data set [1] was “partial activities”.

On to `O=C(O)CCc1ccc(NCc2cccc(Oc3ccccc3)c2)cc1` [GW9508], for which the “change of EC50 in mutants versus wild-type” value in data set [2] was 7.7- to 130 fold. In addition, the “Ca2+ influx response of mutants” value in data set [3] is recorded as “almost completely unresponsive”. In addition, in [9], the “effect of mutations on potency” value is listed as “more drastic”.

Source of the values: publication PMC3794927, “A Novel Antidiabetic Drug, Fasiglifam/TAK-875, Acts as an Ago-Allosteric Modulator of FFAR1” (PLoS ONE, 2013).
